# Results published in US11273136B2, “Method for increasing protein content in milk of lactating cows” (neopharma Japan Co., Ltd., priority 2019, dated 2022).
# Test system: lactating Holstein milk cows
# Assay: Crossover feeding test of 5-ALA-supplemented total mixed ration on milk yield and milk composition of lactating cows
# Format: in vivo
# Text: Effects of ALAs on the milk composition of a lactating cow was studied. Six lactating Holstein milk cows (average body weight 698±18 kg, average milk production 24.1±1.6 kg/d, average days-in-milk (DIM) 209±34 days, and average number of lactations 2.9±0.4) were placed in a free stable. After a 7-day grace period, 6 cows were randomly assigned to section A and section B (each group n=3). Section A had, after a grace period, an ALA administration period of 14 days (ALA Consumption Group A), with an adjustment period of 7 days interposed, followed by an ALA non-administration period of 14 days (Control Group A), whereas Section B had, after a grace period, an ALA non-administration period of 14 days (Control Group B), with an adjustment period of 7 days interposed, followed by an ALA administration period of 14 days (ALA Consumption Group B), whereby the test was carried out by the crossover method. A total mixed ration (TMR) (see Table 2) which had been used was fed during the above grace period, adjustment period and ALA non-administration period, and a feed to which 10 mg of 5-ALA was added per kg of the total mixed ration (TMR) was fed during the ALA administration period.
# 5-ALA was provided by neopharma Japan Co., Ltd. Each feed and water were available at any time but feed consumption of each group on a dry base was 23.4 kg/day per cow in the control groups and 23.6 kg/day per cow in the ALA groups. Thus, the daily consumption of 5-ALA in the ALA groups was 0.329.6 mg to 0.347.1 mg/kg b.w./day. Each of the milk cows was milked at 09:00 and 17:00 and allowed to consume each feed at any time after milking.
# Amounts of Milking from each cow were automatically recorded everyday by an auto milk recorder (manufactured by ORION MACHINERY CO., LTD.). Additionally, for each group of Section A and Section B, during the last 2 days in the ALA administration period of 14 days and the non-administration period of 14 days, 50 to 100 mL of milk was collected twice a day from cows of each period to use as milk samples for data analysis. The milk samples were preserved at −30° C. until the milk composition and the like were analyzed.
# Using the above milk samples collected from each of the cows, the milk composition such as milk fat, proteins, casein, lactose, total solid (TS), solid not fat (SNF), milk urea nitrogen (MUN) and somatic cell count (SCC) was measured using a […] infrared spectroscopy (Milko-Scan, 133N, manufactured by Foss Electric, Hill-erod (Denmark)). Data of each cow were calculated as an average value of 4 milk samples collected for 2 days. For each group of Section A and Section B, the data average of the ALA administration periods (ALA Group A and ALA Group B) was shown under the item of ALA consumption groups, and the data average of the non-administration periods (Control Group A and Control Group B) was shown under the item of Control groups. The data were analyzed statistically as a crossover design using the mixing procedure of SPSS (PASW Statistics 18.0, manufactured by IBM). Statistical analysis of each result was carried out by mixed model and p<0.05(*) meant statistically significant difference. A tendency toward significance was considered at p<0.10.
# [1] = 10 mg 5-ALA per kg TMR, 14 days, milk of last 2 days, ± standard error
# [2] = 10 mg 5-ALA per kg TMR, 14 days, milk of last 2 days, ± standard error, p<0.05 vs control
# [3] = feed to which 5-ALA was added, p<0.05
compound,measurement,setting,value
"NCC(=O)CCC(=O)O [5-ALA, 5-aminolevulinic acid]",Milk yield,"10 mg 5-ALA per kg TMR fed for 14 days, crossover, n=6, ± standard error",23.78 ± 1.67 kg/day
same,Milk composition: Fat,[1],4.42 ± 0.14%
same,Milk composition: Lactose,[1],4.82 ± 0.02%
same,Milk composition: Non-fat solid,[1],9.03 ± 0.17%
same,Milk composition: Overall solid,[1],13.34 ± 0.28%
same,Milk composition: Casein,[2],2.71 ± 0.09 a %
same,Milk composition: Proteins,[2],3.51 ± 0.12 a %
same,Lactose compared with Control Groups,feed to which 5-ALA was added,no particular differences
same,Milk fat compared with Control Groups,feed to which 5-ALA was added,no particular differences
same,Milk yield compared with Control Groups,feed to which 5-ALA was added,no particular differences
same,Non-fat solid compared with Control Groups,feed to which 5-ALA was added,no particular differences
same,Overall solid compared with Control Groups,feed to which 5-ALA was added,no particular differences
same,Casein content in milk compared with Control Groups,[3],increased significantly
same,Protein content in milk compared with Control Groups,[3],increased significantly
